Assays:
[1] = molecular target: T1, Thyrotropin receptor (Homo sapiens, UniProt P16473); assay: Agonist activity at TSHR (unknown origin); format: functional
[2] = molecular target: T1, Thyrotropin receptor; assay: Agonist activity at TSHR (unknown origin) stably expressed in HEK293 cells assessed as intracellular cAMP accumulation incubated for 1 hr; format: functional, cell-based
[3] = molecular target: T1, Thyrotropin receptor; assay: Agonist activity at N-terminal HA-tagged TSHR (unknown origin) stably expressed in CHO cells assessed as change in intracellular […] level incubated for 60 mins by CRE-driven luciferase reporter based microplate reader; format: functional, cell-based
[4] = molecular target: Lutropin-choriogonadotropic hormone receptor (Homo sapiens, UniProt P22888); assay: Agonist activity at LHCGR (unknown origin); format: functional
Sequence of Lutropin-choriogonadotropic hormone receptor (P22888 whole entry): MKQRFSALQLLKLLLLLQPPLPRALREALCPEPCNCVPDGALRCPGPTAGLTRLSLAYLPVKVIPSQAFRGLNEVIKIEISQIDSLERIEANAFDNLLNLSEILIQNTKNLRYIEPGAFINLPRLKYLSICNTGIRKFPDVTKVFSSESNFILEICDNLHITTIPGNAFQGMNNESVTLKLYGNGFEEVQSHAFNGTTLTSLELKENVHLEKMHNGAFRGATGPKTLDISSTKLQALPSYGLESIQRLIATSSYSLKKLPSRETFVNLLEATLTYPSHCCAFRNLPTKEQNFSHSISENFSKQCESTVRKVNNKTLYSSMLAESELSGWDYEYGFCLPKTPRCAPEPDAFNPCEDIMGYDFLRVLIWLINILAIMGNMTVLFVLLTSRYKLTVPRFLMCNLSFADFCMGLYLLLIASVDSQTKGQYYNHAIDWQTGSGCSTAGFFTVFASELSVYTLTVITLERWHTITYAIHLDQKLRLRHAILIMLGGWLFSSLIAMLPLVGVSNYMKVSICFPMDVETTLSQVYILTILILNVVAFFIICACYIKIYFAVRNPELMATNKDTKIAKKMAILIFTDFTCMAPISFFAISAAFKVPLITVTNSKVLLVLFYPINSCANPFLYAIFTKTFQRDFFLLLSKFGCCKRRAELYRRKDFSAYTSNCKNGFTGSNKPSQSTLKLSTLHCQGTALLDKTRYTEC

[5] = molecular target: T1, Thyrotropin receptor; assay: Agonist activity at TSHR (unknown origin) expressed in CHO cells; format: functional, cell-based
[6] = molecular target: T2, Follicle-stimulating hormone receptor (Homo sapiens, UniProt P23945); assay: Agonist activity at FSHR (unknown origin); format: functional
T2 sequence (P23945 whole entry): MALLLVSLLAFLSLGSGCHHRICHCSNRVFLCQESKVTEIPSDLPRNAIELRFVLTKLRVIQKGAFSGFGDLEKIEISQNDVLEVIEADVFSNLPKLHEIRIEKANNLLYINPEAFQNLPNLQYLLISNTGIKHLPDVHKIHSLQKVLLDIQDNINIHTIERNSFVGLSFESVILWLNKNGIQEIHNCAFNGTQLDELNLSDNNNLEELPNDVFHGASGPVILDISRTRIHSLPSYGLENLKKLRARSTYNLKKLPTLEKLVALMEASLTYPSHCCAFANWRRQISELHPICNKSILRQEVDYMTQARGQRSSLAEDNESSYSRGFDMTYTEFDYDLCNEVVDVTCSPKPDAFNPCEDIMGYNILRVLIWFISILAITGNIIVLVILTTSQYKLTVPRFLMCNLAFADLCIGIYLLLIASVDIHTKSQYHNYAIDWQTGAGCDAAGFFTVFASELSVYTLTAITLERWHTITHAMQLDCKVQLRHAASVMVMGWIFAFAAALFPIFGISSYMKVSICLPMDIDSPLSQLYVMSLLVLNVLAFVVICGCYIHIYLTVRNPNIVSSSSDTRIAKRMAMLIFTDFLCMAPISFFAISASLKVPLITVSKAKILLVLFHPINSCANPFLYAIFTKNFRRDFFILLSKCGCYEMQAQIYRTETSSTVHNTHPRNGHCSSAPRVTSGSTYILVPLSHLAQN

[7] = molecular target: T1, Thyrotropin receptor; assay: Inverse agonist activity at TSH receptor (unknown origin) stably expressed in HEK293 cells assessed as reduction in TSH-induced cAMP production incubated for 40 mins by ELISA analysis; format: functional, cell-based
[8] = molecular target: T1, Thyrotropin receptor; assay: Agonist activity at N-terminal HA-tagged TSHR (unknown origin) assessed as intracellular calcium level measured for 60 mins by HTS assay; format: functional, cell-based
[9] = Inhibition of b-TSH-induced C-terminal GFP-tagged mouse TSHR activation expressed in HEK293 cells by cAMP assay; format: cell-based

T1 sequence (P16473 whole entry): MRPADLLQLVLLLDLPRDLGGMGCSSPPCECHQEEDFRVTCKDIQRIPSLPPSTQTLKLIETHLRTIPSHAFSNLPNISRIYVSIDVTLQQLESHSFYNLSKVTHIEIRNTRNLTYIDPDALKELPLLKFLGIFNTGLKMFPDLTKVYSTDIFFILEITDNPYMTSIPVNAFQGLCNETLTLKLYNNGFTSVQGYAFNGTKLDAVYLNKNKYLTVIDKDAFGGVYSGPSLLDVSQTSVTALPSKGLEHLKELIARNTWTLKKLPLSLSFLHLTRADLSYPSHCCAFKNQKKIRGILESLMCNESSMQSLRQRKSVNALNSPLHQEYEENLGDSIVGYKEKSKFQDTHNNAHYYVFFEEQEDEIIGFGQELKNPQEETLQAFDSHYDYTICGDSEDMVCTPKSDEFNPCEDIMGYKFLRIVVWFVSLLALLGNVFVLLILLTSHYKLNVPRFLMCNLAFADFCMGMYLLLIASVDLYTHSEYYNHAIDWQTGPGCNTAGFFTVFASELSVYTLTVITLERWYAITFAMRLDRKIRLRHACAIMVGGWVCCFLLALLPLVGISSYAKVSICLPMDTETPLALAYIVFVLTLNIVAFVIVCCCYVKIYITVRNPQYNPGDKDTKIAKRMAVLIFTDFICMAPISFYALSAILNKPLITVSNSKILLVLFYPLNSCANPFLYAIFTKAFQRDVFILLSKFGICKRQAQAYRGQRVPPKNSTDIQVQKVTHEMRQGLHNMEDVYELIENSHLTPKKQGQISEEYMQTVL

CC(c1ccccc1)c1nc(N2CCNCC2)nc2ccccc12 (stereo unspecified)
EC50 [1]: 11.6 nM

COc1ccc(C2Nc3cccc(O)c3C(=O)N2Cc2ccccc2)cc1COc1ccc(NC(C)=O)cc1 (stereo unspecified)
EC50 [2]: 40 nM

CC1=C(C(=O)OCc2ccccc2)C(c2ccc(C(F)(F)F)cc2)NC(=O)N1 (stereo unspecified)
EC50 [3]: 540 nM | EC50 [4]: > 10000 nM

COC/C=C/c1ccc(-c2nc(SC)nc3sc(C(=O)NC(C)(C)C)c(N)c23)cc1
EC50 [5]: 4.2 nM

CC(C)N(C(=O)c1cc(-c2ccccc2)nc2ccccc12)C(C)C
EC50 [3]: 130 nM | EC50 [4]: > 10000 nM

COc1ccc(C2Nc3ccccc3C(=O)N2Cc2cccnc2)cc1COc1c(C)cccc1C (stereo unspecified)
IC50 [6]: > 30000 nM | EC50 [4]: > 30000 nM | IC50 [7]: 3500 nM

CNc1nc(-c2c(-c3ccccc3)[nH]c3ccccc23)cs1
EC50 [8]: 12300 nM

COc1cccc(-c2nc(SC)nc3sc(C(=O)NC(C)(C)C)c(N)c23)c1
EC50 [4]: 350 nM

CCCc1ccc(-c2cc(C(=O)NCc3ccncc3)c3ccccc3n2)cc1
EC50 [5]: 8.3 nM | EC50 [1]: 8.3 nM

COc1ccc(C2Nc3ccccc3C(=O)N2Cc2ccco2)cc1COc1c(C)cccc1C (stereo unspecified)
IC50 [6]: 4600 nM | EC50 [4]: 480 nM

COc1ccc(C2Nc3ccccc3C(=O)N2Cc2ccco2)cc1COc1c(C)cc(NC(C)=O)cc1C (stereo unspecified)
IC50 [6]: > 30000 nM | EC50 [4]: > 30000 nM | IC50 [7]: 2300 nM

O=C1[C@@H]2[C@H]3C[C@H]([C@@H]4Sc5[nH]c(=O)sc5[C@@H](c5ccccc5)[C@H]34)[C@@H]2C(=O)N1c1ccccc1
IC50 [9]: 40000 nM

COc1ccc(C2Nc3ccccc3C(=O)N2Cc2ccco2)cc1COc1ccc(NC(C)=O)cc1 (stereo unspecified)
EC50 [2]: 600 nM

Source: ChEMBL document CHEMBL5614439, “Targeting Thyroid-Stimulating Hormone Receptor: A Perspective on Small-Molecule Modulators and Their Therapeutic Potential” (J Med Chem, 2024)
